Reference: patent US20170281799A1, “SYSTEMS AND METHODS FOR SCREENING OTOTOXIC, OTOPROTECTIVE, AND OTOREGENERATIVE COMPOUNDS USING AQUATIC MODELS” (ARIZONA BOARD OF REGENTS ON BEHALF OF THE UNIVERSITY OF …, priority 2014, published 2017)
Entries after “also recorded” stand apart in the source; their conditions may differ.

Key:
zebrafish [1] = assay: Behavioral assay: rheotaxis in swimming test apparatus; assay type: in vivo, Danio rerio
Excerpt: The custom-built behavioral apparatus consists of 6 experimental lanes with laminar flow velocity controlled at 0.15 cm/sec, allowing the simultaneous testing of up to 6 differing experimental conditions. Each lane measures 10.2 cm in height×9.9 cm in width×25.4 cm in length. Lanes are partitioned with metal mesh dividers to contain fish in one central area, measuring 5.0 cm length×9.9 cm width, allowing for image capture (FIG. 3). E2 medium flows from a header tank through the experimental lanes to a media reserve tank and is then recycled via pump back to the header tank. The pump is used to overdrive a header standpipe, resulting in constant pressure that is split evenly between the lanes, controlling the flow. A heater located in the reserve media tank maintains temperature at 28±0.5° C. Total system volume capacity (experimental apparatus+header and reserve tanks) is approximately 210 L, while operating volume is 152 L. The flow is calibrated as follows: lane width (9.9 cm)×total number of lanes (6)×operational water height (5.8 cm)×desired flow (0.15 cm/sec)=flow rate of 51.7 cubic centimeters/seconds. Water traveling from experimental lanes to the reserve media tank is received in a 1000 mL beaker and the rate of water flow is adjusted until it takes 19.3 seconds to fill the beaker to 1000 mL. Flow speed is calibrated before every experiment. With the system calibrated, flow may then be turned on or off via a separate valve, without any further adjustments.
The experimental system is housed in a cabinet creating a condition free of ambient light, thus negating any influence of visual input on zebrafish swimming behavior. Infrared light provides lighting from which images were acquired. Video capture is accomplished with under-mounted Samsung SCB-200 high-resolution video cameras (FIG. 3). In conducting the assay, five-day post fertilization (5 dpf) zebrafish are treated with several different experimental conditions (see below for detailed methods), rinsed three times in embryo medium, transferred to the experimental lanes, and the cabinet is then closed for 30 minutes to allow for dark adaptation. Image acquisition begins with 2 minutes of filming under no-flow conditions, next the water flow is turned on and the fish are allowed 1 minute to acclimate to the flow and then 2 minutes of flow behavior is recorded (FIG. 4).
Rheotaxis was defined as fish oriented headfirst, with an axial alignment within 30 degrees on either side of the directional flow vector and attempting to swim into the current. […] From the still images, the angle of every fish was measured using ImageJ and placed into an Excel spreadsheet for data processing (FIG. 6). […] Therefore, there were no negative values or angles measured between 181-360 degrees. […]

zebrafish [2] = assay: Rheotaxis behavior with next generation video imaging and semi-automated image analysis; assay type: in vivo, Danio rerio
Excerpt: Sulforaphane, a naturally occurring molecule within the isothiocyanate group of organosulfur compounds, is present within cruciferous vegetables such as broccoli. Low doses of SF induce production of antioxidant enzymes such as glutathione transferases, UDP-glucuronyltransferase, NAD(P)H:quinone oxidoreductase I and heme oxygenase-1 (HO-1) via NRF2 mediated activation of ARE promoters upstream from their genes—thereby allowing a diverse array of electrophilic and oxidative toxicants to be eliminated in a coordinated manner. Four-and-half dpf larvae were incubated in sulforaphane at a concentration of 10 μM for 12 hours and subsequently incubated for 4 hours in 1000 μM cisplatin (SF10/Cis 1000). An SF-alone (SF10/Cis 0) group and DMSO vehicle controls (DMSO/Cis 1000; DMSO/Cis 0) were also tested. To assess the otoprotective effects of SF on hair cell anatomy, aggregate neuromast damages were determined for each treatment group.

lateral line hair cells = assay: Anatomical assay: YO-PRO1 staining, aggregate neuromast damage score; conditions: for Anatomical Assay Damage Score (Mean ± S.D.): score 0-21 per fish
Protocol: Following the drug exposure (see below for detailed methods), larvae were fluorescently stained/labeled in embryo medium containing 6 μM YO-PRO1 (Invitrogen; Y3603) for 20 min. YO-PRO1 is a common vital dye used for staining viable lateral line hair cells in zebrafish (Coffin A B, et al., Zebrafish. 2010 March; 7(1):3-11; Ou H C, et al., Drug Discov Today. 2010 April; 15(7-8):265-71; Ou H C, et al., Hear Res. 2007 November; 233(1-2):46-53; Santos F, et al., Hear Res. 2006 March; 213(1-2):25-33). Concentration and duration were optimized for this purpose. After labeling, the larvae were rinsed three times in embryo media and then anesthetized using 0.5 mM of MS-222 (Tricaine Methanesulfonate, Western Chemical Inc.) (Buck L M, et al., Hear Res. 2012 February; 284(1-2):67-81). The larvae were fixed in 2% paraformaldehyde for 1 hour at room temperature and stored in PBS overnight at 4° C. Fixed larvae were then mounted in 6% methylcellulose (Sigma; M7140) in 0.2 mm silicone chambers and covered with No. 1.5 cover glass (Warner Instruments; 64-0718) for confocal microscopy. Larvae were observed under a confocal microscope (Leica SP5) using 20× dry and 40× oil immersion lenses.
Treatment groups consisted of 3-7 fish. Seven ventral neuromasts of the posterior lateral line (P3, P4, P5, P6, P7, P8, and P9) were selected for determination of the “neuromast damage score” per fish (FIG. 1). Each neuromast was scored from 0 to 3. A score of 0 represents no damage with normal staining; 1 represents mild damage with moderate staining; 2 represents severe damage with poor staining; 3 represents total hair cell/neuromast destruction with no staining (FIG. 2). Seven scores per fish were then added to generate the total “aggregate neuromast damage score.” The lowest possible score for an individual fish is 0, representing no damage, with the highest possible score for a fish being 21, representing complete damage. Separate individuals (scorer A, B and C) were trained in the counting technique and “neuromast damage scores” were generated independently with blinding of experimental conditions to insure unbiased assessment. The mean score of the three evaluators was used to determine the final “neuromast damage score.” Inter-scorer variation was validated by using the Pearson's correlation coefficient.
In order to establish the sensitivity of the newly developed behavior assay for detecting damage caused by varying doses of cisplatin, a cisplatin dose-dependent exposure experiment was prepared. Cisplatin solutions were prepared from powder (Sigma; P4394) in embryo medium. Five dpf larvae were incubated in cisplatin at concentrations of 0, 250, 500, 750, or 1000 μM (Cis 0, Cis 250, Cis 500, Cis 750, and Cis 1000, respectively) for 4 hours at room temperature or 28±0.5° C. then rinsed 3 times in embryo media.
In order to assess the effect of dexamethasone on cisplatin-induced ototoxicity using the behavior/anatomical assay technique, dexamethasone pre-exposure groups were prepared. Dexamethasone (Sigma; D4902) stock solution (25 mg/ml) was prepared with DMSO (Dimethyl Sulphoxide, Sigma; D2650) and diluted with embryo medium. Four-and-half dpf larvae were incubated in dexamethasone at a concentration of 5 μM for 12 hours at 28.5±0.5° C. and subsequently rinsed in embryo media. Four-and-half dpf fish were used to allow for a half-day of maturation to ensure all fish would be 5 dpf at time of behavioral/anatomical testing. […]

[3] = dexamethasone 5 μM 12 hours alone, no cisplatin
[4] = dexamethasone 5 μM pre-exposure 12 hours, then cisplatin 1000 μM 4 hours

N.N.[Cl][Pt][Cl] [Cis, cisplatin]
rheotaxis performance versus cisplatin dosage (in words) (zebrafish [1]; in vivo): clear linear correlation was found between increasing cisplatin dosage and decreased rheotaxis performance | rheotaxis index (zebrafish [2]; cisplatin 1000 μM, new image analysis techniques, controls >85%): 45%

C[C@@H]1C[C@H]2[C@@H]3CCC4=CC(=O)C=C[C@]4(C)[C@@]3(F)[C@@H](O)C[C@]2(C)[C@@]1(O)C(=O)CO [Dex, dexamethasone]
damage by dexamethasone-alone treatment, rheotaxis (in words) (zebrafish [1]; Dex 5/Cis 0): No damage was induced | Behavioral Assay Rheotaxia Index (%) (Mean ± S.D.) (zebrafish [1]; [3]): 35.6 ± 12.5% | Behavioral Assay Rheotaxia Index (%) (Mean ± S.D.) (zebrafish [1]; [4]): 25.5 ± 5.2% | hair cell damage caused by dexamethasone alone (in words) (lateral line hair cells; Dex 5/Cis 0): no hair cell damage; also recorded: no statistically significant difference between Cis 0 and Dex 5/Cis 0 | Anatomical Assay Damage Score (Mean ± S.D.) (lateral line hair cells; [3]): 2.40 ± 0.64 | Anatomical Assay Damage Score (Mean ± S.D.) (lateral line hair cells; [4]): 5.20 ± 1.53

C[S+]([O-])CCCCN=C=S (centres unmarked) [sulforaphane]
hair cell damage caused by sulforaphane alone (in words) (lateral line hair cells; SF10/Cis 0: 10 μM, 12 hours): caused no hair cell damage | rescue of hair cell architecture against cisplatin (in words) (lateral line hair cells; SF10/Cis 1000: 10 μM 12 hours, then 1000 μM cisplatin 4 hours): partial rescue of hair cell architecture | effect of pre-exposure on rheotaxis after cisplatin (in words) (zebrafish [2]; SF10/Cis 1000): dramatically improved the ability of fish to perform rheotaxis
